Results from patent US20110136801A1, “Novel Compounds” (Dainippon Sumitomo Pharma Co. Ltd., priority 2009, published 2011).

What follows are compounds tested against T1, human TLR7 (Homo sapiens, UniProt Q9NYK1) (assay: Human TLR7 Assay (SEAP reporter in HEK293 cells)). Details: HEK293 cell line expressing human TLR7 and pNiFty2-SEAP reporter, overnight incubation at 37° C., 0.1% DMSO; read-out: hTLR7 EC50.
T1 construct: expressed in transfected cells; host or cells: HEK293 cell line stably expressing the pNiFty2-SEAP reporter plasmid; TLR7 in pUNO vector, blasticidin selection
T1 sequence (Q9NYK1 27-1049): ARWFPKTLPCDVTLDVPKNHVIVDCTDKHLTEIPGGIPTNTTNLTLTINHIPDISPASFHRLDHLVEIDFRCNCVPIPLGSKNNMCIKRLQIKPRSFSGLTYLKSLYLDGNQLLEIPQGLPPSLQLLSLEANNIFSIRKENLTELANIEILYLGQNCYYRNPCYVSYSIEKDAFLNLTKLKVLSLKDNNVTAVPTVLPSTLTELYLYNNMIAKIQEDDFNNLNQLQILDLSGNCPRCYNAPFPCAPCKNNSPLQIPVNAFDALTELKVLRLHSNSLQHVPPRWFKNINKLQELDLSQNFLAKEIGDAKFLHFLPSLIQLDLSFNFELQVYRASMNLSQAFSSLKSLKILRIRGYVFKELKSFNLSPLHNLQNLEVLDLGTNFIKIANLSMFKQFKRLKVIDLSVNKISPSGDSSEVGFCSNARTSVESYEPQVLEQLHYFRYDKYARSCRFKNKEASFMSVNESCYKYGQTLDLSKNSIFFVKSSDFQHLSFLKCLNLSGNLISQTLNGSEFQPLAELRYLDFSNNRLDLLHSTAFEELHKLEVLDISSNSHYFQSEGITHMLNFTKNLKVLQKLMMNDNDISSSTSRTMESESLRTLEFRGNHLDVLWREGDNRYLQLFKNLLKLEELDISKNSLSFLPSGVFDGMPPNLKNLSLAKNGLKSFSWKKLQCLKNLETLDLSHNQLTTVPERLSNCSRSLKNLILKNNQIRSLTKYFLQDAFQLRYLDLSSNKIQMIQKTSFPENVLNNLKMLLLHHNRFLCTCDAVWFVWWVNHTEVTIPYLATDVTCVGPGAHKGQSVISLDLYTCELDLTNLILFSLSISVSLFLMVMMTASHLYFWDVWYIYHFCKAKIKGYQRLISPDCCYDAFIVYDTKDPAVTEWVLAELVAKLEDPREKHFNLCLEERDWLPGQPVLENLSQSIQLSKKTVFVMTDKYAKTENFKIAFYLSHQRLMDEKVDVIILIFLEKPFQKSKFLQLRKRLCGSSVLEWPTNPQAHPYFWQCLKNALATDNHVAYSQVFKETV
Format: cell-based
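Also: Read-out is secreted alkaline phosphatase made under an NFkB/ELAM-1 composite promoter, reporting TLR7-triggered NFkB activation.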
Excerpt: The most common variant sequence of human TLR7 (represented by the EMBL sequence AF240467) was cloned into the mammalian cell expression vector pUNO and transfected into a HEK293 cell line already stably expressing the pNiFty2-SEAP reporter plasmid; integration of the reporter gene was maintained by selection with the antibiotic zeocin. Transfectants with stable TLR7 expression were selected using the antibiotic blasticidin. In this reporter cell-line, expression of secreted alkaline phosphatase (SEAP) is controlled by an NFkB/ELAM-1 composite promoter comprising five NFkB sites combined with the proximal ELAM-1 promoter. TLR signaling leads to the translocation of NFkB and activation of the promoter results in expression of the SEAP gene. TLR7-specific activation was assessed by determining the level of SEAP produced following overnight incubation of the cells at 37° C. with the standard compound in the presence of 0.1% (v/v) dimethylsulfoxide (DMSO). Concentration dependent induction of SEAP production by compounds was expressed as the concentration of compound which produced half of the maximal level of SEAP induction for that compound (EC50).

| EC50 [nM] | SMILES |
| --- | --- |
| 49.4 | CCOC(=O)COc1cc(CN(CCN2CCCCC2)C(=O)NCCCCn2c(CCOC)nc3c(N)nc4ccccc4c32)ccc1F [Example 143, Ethyl 2-{5-[(3-{4-[4-amino-2-(2-methoxyethyl)-1H-imidazo[4,5-c]quinolin-1-yl]butyl}-1-{2-(piperidin-1-yl)ethyl}ureido)methyl]-2-fluorophenoxy}acetate] |
| 95.7 | CCOC(=O)COc1cccc(CN(CCCn2c(CCOC)nc3c(N)nc4ccccc4c32)C(=O)CN(CC)CC)c1OC [Example 89, Ethyl 2-{3-[(N-{3-[4-amino-2-(2-methoxyethyl)-1H-imidazo[4,5-c]quinolin-1-yl]propyl}-2-{diethylamino}acetamido)methyl]-2-methoxyphenoxy}acetate] |
| 434 | CCOCc1nc2c(N)nc3ccccc3c2n1CCCN(Cc1cccc(OCC(=O)OC(C)C)c1)C(=O)CN1CCCC1 [Example 172, Isopropyl 2-{3-[(N-{3-[4-amino-2-(ethoxymethyl)-1H-imidazo[4,5-c]quinolin-1-yl]propyl}-2-{pyrrolidin-1-yl}acetamido)methyl]phenoxy}acetate] |
| 158 | CCCCc1nc2c(N)nc3ccccc3c2n1CCCN(Cc1cccc(OCC(=O)OC(C)C)c1F)C(=O)CN(CC)CC [Example 164, Isopropyl 2-[3-({N-[3-(4-amino-2-butyl-1H-imidazo[4,5-c]quinolin-1-yl)propyl]-2-(diethylamino)acetamido}methyl)-2-fluorophenoxy]acetate] |
| 61.3 | CCCCOC(=O)COc1cccc(CN(CCCn2c(CCOC)nc3c(N)nc4ccccc4c32)C(=O)CN(CC)CC)c1 [Example 83, Butyl 2-{3-[(N-{3-[4-amino-2-(2-methoxyethyl)-1H-imidazo[4,5-c]quinolin-1-yl]propyl}-2-{diethylamino}acetamido)methyl]phenoxy}acetate] |
| 84.6 | CCOC(=O)C(C)(C)Oc1cccc(CN(CCCn2c(CCOC)nc3c(N)nc4ccccc4c32)C(=O)CN(C)CC)c1 [Example 150, Ethyl 2-{3-[(N-{3-[4-amino-2-(2-methoxyethyl)-1H-imidazo[4,5-c]quinolin-1-yl]propyl}-2-{ethyl(methyl)amino}acetamido)methyl]phenoxy}-2-methylpropanoate] |
| 45.8 | CCN(CC)CC(=O)N(CCCn1c(CCOC)nc2c(N)nc3ccccc3c21)Cc1ccc(C)c(OCC(=O)OC(C)C)c1 [Example 67, Isopropyl 2-{5-[(N-{3-[4-amino-2-(2-methoxyethyl)-1H-imidazo[4,5-c]quinolin-1-yl]propyl}-2-{diethylamino}acetamido)methyl]-2-methylphenoxy}acetate] |
| 1270 | COCCc1nc2c(N)nc3ccccc3c2n1CCCN(Cc1cccc(OCC(=O)OC)c1)C(=O)CN1CCN(C)CC1 [Example 18, Methyl (3-{[[3-(4-amino-2-(2-methoxyethyl)-1H-imidazo[4,5-c]quinolin-1-yl)propyl][(4-methylpiperazin-1-yl)acetyl]amino]methyl}phenoxy)acetate] |
| 260 | CCCc1nc2c(N)nc3ccccc3c2n1CCCN(Cc1cccc(OCC(=O)OC(C)C)c1)C(=O)CN(CC)CC [Example 160, Isopropyl 2-[3-({N-[3-(4-amino-2-propyl-1H-imidazo[4,5-c]quinolin-1-yl)propyl]-2-(diethylamino)acetamido}methyl)phenoxy]acetate] |
| 633 | CCCCc1nc2c(N)nc3ccccc3c2n1CCCN(Cc1ccc(OCC(=O)OC)cc1)C(=O)CN1CCN(C)CC1 [Example 7, Methyl [4-({[3-(4-amino-2-butyl-1H-imidazo[4,5-c]quinolin-1-yl)propyl][(4-methylpiperazin-1-yl)acetyl]amino}methyl)phenoxy]acetate] |
| 111 | CCOC(=O)C(C)(C)Oc1cccc(CN(CCCCn2c(CCOC)nc3c(N)nc4ccccc4c32)CCCN2CCOCC2)c1 [Example 136, Ethyl 2-{3-[({4-[4-amino-2-(2-methoxyethyl)-1H-imidazo[4,5-c]quinolin-1-yl]butyl}{3-morpholinopropyl}amino)methyl]phenoxy}-2-methylpropanoate] |
| 181 | COCCc1nc2c(N)nc3ccccc3c2n1CCCNCc1cccc(OCC(=O)OC)c1 [Example 15, Methyl (3-{[[3-(4-amino-2-(2-methoxyethyl)-1H-imidazo[4,5-c]quinolin-1-yl)propyl]amino]methyl}phenoxy)acetate] |
| 756 | COCCc1nc2c(N)nc3ccccc3c2n1CCCN(Cc1cccc(OCC(=O)OC(C)C)c1)C(=O)CN1CCOCC1 [Example 112, Isopropyl 2-{3-[(N-{3-[4-amino-2-(2-methoxyethyl)-1H-imidazo[4,5-c]quinolin-1-yl]propyl}-2-morpholinoacetamido)methyl]phenoxy}acetate] |
| > 10000 | CCN(CC)CC(=O)N(CCn1c(CCOC)nc2c(N)nc3ccccc3c21)Cc1cccc(OCC(=O)OC(C)C)c1 [Example 103, Isopropyl 2-{3-[(N-{2-[4-amino-2-(2-methoxyethyl)-1H-imidazo[4,5-c]quinolin-1-yl]ethyl}-2-{diethylamino}acetamido)methyl]phenoxy}acetate] |
| 117 | CCCOCc1nc2c(N)nc3ccccc3c2n1CCCN(Cc1cccc(OC(C)(C)C(=O)OC)c1)C(=O)CN(CC)CC [Example 174, Methyl 2-{3-[(N-{3-[4-amino-2-(propoxymethyl)-1H-imidazo[4,5-c]quinolin-1-yl]propyl}-2-{diethylamino}acetamido)methyl]phenoxy}-2-methylpropanoate] |
| 204 | CCOC(=O)COc1cccc(CN(CCCCn2c(CCOC)nc3c(N)nc4ccccc4c32)C(=O)NCCCN(C)C)c1 [Example 129, Ethyl 2-{3-[(1-{4-[4-amino-2-(2-methoxyethyl)-1H-imidazo[4,5-c]quinolin-1-yl]butyl}-3-{3-(dimethylamino)propyl}ureido)methyl]phenoxy}acetate] |
| 38.3 | CCOC(=O)COc1ccc(CN(CCCn2c(CCOC)nc3c(N)nc4ccccc4c32)C(=O)CN(CC)CC)cc1 [Example 37, Ethyl 2-{4-[(N-{3-[4-amino-2-(2-methoxyethyl)-1H-imidazo[4,5-c]quinolin-1-yl]propyl}-2-(diethylamino)acetamido)methyl]phenoxy}acetate] |
| 904 | CCCCc1nc2c(N)nc3ccccc3c2n1CCCN(Cc1ccc(OCC(=O)OC)cc1)C(=O)CN1CCN(CCOC)CC1 [Example 8, Methyl {4-[([3-(4-amino-2-butyl-1H-imidazo[4,5-c]quinolin-1-yl)propyl]{[4-(2-methoxyethyl)piperazin-1-yl]acetyl}amino)methyl]phenoxy}acetate] |
| 84.2 | CCOC(=O)COc1cc(CN(CCCn2c(CCOC)nc3c(N)nc4ccccc4c32)C(=O)CN(CC)CC)ccc1OC [Example 62, Ethyl 2-{5-[(N-{3-[4-amino-2-(2-methoxyethyl)-1H-imidazo[4,5-c]quinolin-1-yl]propyl}-2-{diethylamino}acetamido)methyl]-2-methoxyphenoxy}acetate] |
| 22.7 | CCOC(=O)COc1cccc(CN(CCCCn2c(CCOC)nc3c(N)nc4ccccc4c32)C(=O)CN(CC)CC)c1 [Example 44, Ethyl 2-{3-[(N-{4-[4-amino-2-(2-methoxyethyl)-1H-imidazo[4,5-c]quinolin-1-yl]butyl}-2-(diethylamino)acetamido)methyl]phenoxy}acetate] |
| 168 | CCCCc1nc2c(N)nc3ccccc3c2n1CCCN(Cc1cccc(OC(C)(C)C(=O)OC)c1)C(=O)CN(C)C [Example 156, Methyl 2-[3-({N-[3-(4-amino-2-butyl-1H-imidazo[4,5-c]quinolin-1-yl)propyl]-2-(dimethylamino)acetamido}methyl)phenoxy]-2-methylpropanoate] |
| 55.8 | CCN(CC)CC(=O)N(CCCn1c(CCOC)nc2c(N)nc3ccccc3c21)Cc1ccc(OC)c(OCC(=O)OC(C)C)c1 [Example 72, Isopropyl 2-{5-[(N-{3-[4-amino-2-(2-methoxyethyl)-1H-imidazo[4,5-c]quinolin-1-yl]propyl}-2-{diethylamino}acetamido)methyl]-2-methoylphenoxy}acetate] |
| 136 | CCCCc1nc2c(N)nc3ccccc3c2n1CCCN(Cc1cccc(OCC(=O)OC)c1)C(=O)CN1CCCC1 [Example 13, Methyl (3-{[[3-(4-amino-2-butyl-1H-imidazo[4,5-c]quinolin-1-yl)propyl](pyrrolidin-1-ylacetyl)amino]methyl}phenoxy)acetate] |
